Legend:
HIV-1 in MT4 cells = assay: In vitro anti-HIV activity in MT4 cells, colorimetric XTT assay; assay type: cell-based; conditions: Human immunodeficiency virus 1, MT4
HIV-1 protease = HIV-1 protease (Human immunodeficiency virus type 1 group M subtype B, UniProt P04585); assay: HIV-1 protease inhibition, fluorometric assay; assay type: biochemical
[1] = Bidirectional transport across Caco-2 cell monolayers; conditions: human, Caco-2, pH 7.4
Transport = conditions: rat, pH 7.4

Compound | EC50 (HIV-1 in MT4 cells) | Ki (HIV-1 protease) | Papp A→B [1] | Papp B→A [1] | efflux ratio [1] | Papp (Transport) | Papp at 90 min (Transport)
CNC(=O)[C@@H](NC(=O)[C@](O)(Cc1ccccc1)CN(Cc1ccc(-c2ccccn2)cc1)NC(=O)[C@@H](NC(=O)OC)C(C)(C)C)C(C)(C)C [Compound 11, methyl (S)-1-(2-((S)-2-benzyl-3-((S)-3,3-dimethyl-1-(methylamino)-1-oxobutan-2-ylamino)-2-hydroxy-3-oxopropyl)-2-(4-(pyridin-2-yl)benzyl)hydrazinyl)-3,3-dimethyl-1-oxobutan-2-ylcarbamate] | > 10000 nM | 23 nM | 3.4 ± 0.4 ×10⁻⁶ cm/s | 26 ± 9.1 ×10⁻⁶ cm/s | 7.6 | 3.8 ×10⁻⁶ cm/s | < 8 ×10⁻⁶ cm/s
CC(C)(C)NC(=O)[C@@H]1CN(Cc2cccnc2)CCN1C[C@@H](O)C[C@@H](Cc1ccccc1)C(=O)N[C@H]1c2ccccc2C[C@H]1O [Indinavir, reference compound] | 41 nM | – | – | – | – | – | –

Source: paper PMC3210832 (Journal of Pharmaceutical Sciences, 2011)
